Data set [1] deals with T1, CYP3A4 (Homo sapiens, UniProt P08684).
T1 construct: Human liver microsomes purchased from XenoTech, LLC (Lenexa, Kans.) was used; tissue XenoTech, LLC; host or cells: human liver microsomes
The data set can be described thus: CYP3A4 TDI (human liver microsomes, testosterone 6β-hydroxylation). In kind it is in vitro ADME. The following applies: test compound 30 μM, 60 min vs 0 min preincubation with NADPH, 37° C. As for the experimental part: Human liver microsomes purchased from XenoTech, LLC (Lenexa, Kans.) was used. Test compounds were dissolved in acetonitrile, acetonitrile/methanol (1:1, v/v) or DMSO/acetonitrile (1:4, v/v). To a human liver microsomes solution adjusted with phosphate buffer (pH 7.4), the test compound solution was added to obtain a human liver microsomes reaction solution having the test compound concentration of 30 μM. To the human liver microsome reaction solution, NADPH production system was added, and the mixture was preincubated at 37° C. for 0 minutes or 60 minutes. After the preincubation, probe substrate testosterone was added, and testosterone metabolite 6β-hydroxytestosterone was analyzed by LC/MS/MS to evaluate CYP3A4 enzymatic activity.
The enzyme activity (% of control) at each preincubation point was calculated from the following equation: % of control=[(activity of test compound addition group)/(activity of test compound non-addition group)]×100.
The remaining activity (% remaining) after 60 minutes of preincubation was calculated from the following equation: Remaining activity (%)=[activity after 60 minutes (% of control60 min)]/[activity after 0 minutes (% of control0 min)]×100.
On the technique in general: Microsomes from liver hold many membrane-bound enzymes, among them those of drug oxidation.

Data set [2] addresses T2, human CaSR (Homo sapiens, UniProt P41180).
T2 construct: expressed in transfected cells; host or cells: CHO cells
T2 sequence (P41180 20-1078): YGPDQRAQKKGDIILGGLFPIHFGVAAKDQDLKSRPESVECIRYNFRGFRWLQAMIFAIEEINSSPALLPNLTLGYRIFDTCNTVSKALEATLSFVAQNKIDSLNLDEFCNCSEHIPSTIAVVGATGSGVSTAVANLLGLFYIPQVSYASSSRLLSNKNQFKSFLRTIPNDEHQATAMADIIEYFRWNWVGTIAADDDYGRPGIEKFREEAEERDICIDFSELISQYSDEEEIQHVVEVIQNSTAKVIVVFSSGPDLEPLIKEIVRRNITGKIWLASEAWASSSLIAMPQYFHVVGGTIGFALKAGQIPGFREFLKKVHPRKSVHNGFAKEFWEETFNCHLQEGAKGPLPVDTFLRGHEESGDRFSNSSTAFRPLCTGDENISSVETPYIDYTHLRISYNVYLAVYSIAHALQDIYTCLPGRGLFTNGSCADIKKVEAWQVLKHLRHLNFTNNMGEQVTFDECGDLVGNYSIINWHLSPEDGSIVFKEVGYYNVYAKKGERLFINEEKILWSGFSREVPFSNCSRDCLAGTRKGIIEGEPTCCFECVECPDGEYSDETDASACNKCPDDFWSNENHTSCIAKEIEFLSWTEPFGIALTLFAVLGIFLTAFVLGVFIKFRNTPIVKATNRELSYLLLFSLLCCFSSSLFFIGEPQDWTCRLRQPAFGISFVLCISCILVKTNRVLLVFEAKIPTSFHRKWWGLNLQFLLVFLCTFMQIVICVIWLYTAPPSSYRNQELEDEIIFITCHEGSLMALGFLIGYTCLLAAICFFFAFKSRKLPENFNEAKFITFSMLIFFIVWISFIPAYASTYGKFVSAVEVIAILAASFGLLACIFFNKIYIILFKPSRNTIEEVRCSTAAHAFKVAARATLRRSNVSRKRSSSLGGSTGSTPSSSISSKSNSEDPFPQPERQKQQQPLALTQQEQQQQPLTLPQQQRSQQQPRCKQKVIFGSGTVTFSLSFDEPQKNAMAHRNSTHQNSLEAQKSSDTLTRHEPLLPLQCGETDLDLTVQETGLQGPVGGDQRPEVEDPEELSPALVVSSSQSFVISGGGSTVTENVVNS
The data set is described as follows: Human CaSR Antagonist Activity (CHO cells, NFAT-Luciferase reporter). The class given is cell-based. The following applies: CHO, 2 h, 3.3 μm test compound; CaCl2 final 1.3 mM; 100% = reference carboxamide at 10 μM; read-out: Inhibition rate (%) at 3.3 μm. As for the experimental part:
CaSR antagonist activity measurement was performed using Bright-Glo Luciferase assay system (Promega Corporation). CHO cells in which human CaSR and NFAT-Luciferase reporter gene were forcibly expressed were suspended in MEM alpha (Wako Pure Chemical Industries, Ltd.) containing 10% dialyzed serum (HyClone). The cells in suspension was seeded in 384-well white plate (Corning) at 10,000/20 μL/well, and cultured in an incubator of 37° C., 5% CO2 for one day. A diluent of Test compound was prepared with assay buffer (MEM alpha containing 10 mM HEPES (Life Technologies) and 10% dialysis serum). The diluent was added to the plate at 5 μL/well and allowed to stand at 37° C. for 10 minutes. Further, a diluent of 7.8 mM CaCl2 prepared with assay buffer (final concentration 1.3 mM) was added at 5 μl/well and allowed to stand in an incubator of 37° C., 5% CO2 for 2 hours. Bright-Glo reagents (Promega Corporation) were added at 10 μL/well, and the obtained mixture was stirred for 5 minutes, and then luminescence intensity was measured using Multi-label reader Envision (PerkinElmer, Inc.). The activity (%) of the test compound was calculated with the definitions in which the luminescence intensity when DMSO is added in place of the test compound is defined as 0% inhibition; and the luminescence intensity when (5R)—N-(1-ethyl-1-(4-ethylphenyl)propyl)-2,7,7-trimethyl-5-phenyl-4,5,6,7-tetrahydropyrazolo[1,5-a]Pyrimidine-3-carboxamide at final concentration of 10 μM is added is defined as 100% inhibition.

Molecules are shown by their SMILES.

T1 sequence (P08684 whole entry): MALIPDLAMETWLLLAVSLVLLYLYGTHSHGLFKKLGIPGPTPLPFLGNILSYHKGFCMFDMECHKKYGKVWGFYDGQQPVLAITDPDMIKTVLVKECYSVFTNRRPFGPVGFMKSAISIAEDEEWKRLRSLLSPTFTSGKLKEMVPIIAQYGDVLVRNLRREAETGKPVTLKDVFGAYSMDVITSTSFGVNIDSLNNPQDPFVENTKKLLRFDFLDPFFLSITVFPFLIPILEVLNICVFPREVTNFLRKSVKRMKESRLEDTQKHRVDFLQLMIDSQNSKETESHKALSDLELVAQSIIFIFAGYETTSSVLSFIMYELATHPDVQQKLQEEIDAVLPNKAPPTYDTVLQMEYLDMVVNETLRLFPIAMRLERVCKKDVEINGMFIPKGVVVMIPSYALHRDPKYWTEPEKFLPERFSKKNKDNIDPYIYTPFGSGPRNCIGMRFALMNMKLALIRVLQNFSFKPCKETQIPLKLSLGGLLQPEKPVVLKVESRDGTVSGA

As a reminder, the inhibition is the relative decrease from the control value, in per cent. With `CC1(C)C[C@H](c2ccccc2)Nc2c(C(=O)N3C[C@@H]4C[C@]4(c4ccc(Cl)c(Cl)c4)C3)cnn21` [Example 1, ((1S,5R)-1-(3,4-Dichlorophenyl)-3-azabicyclo[3.1.0]hex-3-yl)((5R)-7,7-dimethyl-5-phenyl-4,5,6,7-tetrahydropyrazolo[1,5-a]pyrimidin-3-yl)methanone], the “Remaining Activity (%)” value in data set [1] was determined as 86.0%. The inhibition at 3.3 µM in data set [2] came to 100%.

Source of the values: US10919891B2, “Heterocyclic compound” (TAKEDA PHARMACEUTICAL COMPANY LIMITED, priority 2017, dated 2021).
